The results in this text go back to PubChem BioAssay (NCI).

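Briefly, cells in 96-well plates were exposed to five compound concentrations for 48 h, and endpoints were estimated by linear interpolation. GI50 marks 50% less growth. TGI: concentration producing complete growth inhibition.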 Bounds are passed on as bounds.

Some test systems named below: SF-268 CNS; RPMI-8226 leukemia; UACC-62 melanoma; OVCAR-5 ovarian; COLO 205 colon; RXF 393 renal; HOP-92 NSCLC; OVCAR-8 ovarian; BT-549 breast; 786-0 renal.
Common to all, as to experiment: NCI anticancer screen, dose series, 48 h

Take `Cc1cc([NH-])c([NH-])cc1C.[Cl][Pt+2][Cl]`: the GI50 in the experiment on SF-268 CNS is 6.27 µM; in the experiment on RPMI-8226 leukemia it was 9.49 µM; in the experiment with UACC-62 melanoma, 8.88 µM; in the experiment on OVCAR-5 ovarian, greater than 59.8 µM; in the experiment on COLO 205 colon, 14.8 µM; in the experiment with RXF 393 renal, 16.3 µM. Further, the GI50 was 16.2 µM with HOP-92 NSCLC and 16.8 µM in the experiment on OVCAR-8 ovarian. In addition, the TGI in the experiment with SF-268 CNS is 34.6 µM; in the experiment on RPMI-8226 leukemia, 60.2 µM; in the experiment on UACC-62 melanoma it was 27.3 µM; in the experiment on OVCAR-5 ovarian, greater than 83.5 µM; with COLO 205 colon, 34.9 µM; in the experiment on RXF 393 renal, 31.1 µM. Also, the TGI with HOP-92 NSCLC was 40.7 µM; in the experiment on OVCAR-8 ovarian, greater than 55.5 µM.

For the compound `Cc1ccc2c(c1)-c1nc(N)c(C#N)c(-c3ccc(Cl)cc3)c1CCS2(=O)=O`, the TGI with SF-268 CNS is greater than 100 µM; with UACC-62 melanoma, greater than 100 µM; in the experiment with BT-549 breast it was greater than 100 µM; in the experiment with COLO 205 colon it was 65.6 µM; with 786-0 renal, greater than 100 µM; with HOP-92 NSCLC it was greater than 100 µM. The TGI with OVCAR-8 ovarian was greater than 100 µM.

In the case of `Cc1ccc2nc(SCC(=O)N=Nc3c(O)[nH]c4ccccc34)n(-c3ccccc3)c(=O)c2c1`, the TGI in the experiment with SF-268 CNS came to 26.6 µM; in the experiment with RPMI-8226 leukemia, 35.7 µM; in the experiment on UACC-62 melanoma, 30.6 µM; in the experiment on OVCAR-5 ovarian, 29.3 µM; in the experiment on COLO 205 colon, 33 µM; in the experiment on 786-0 renal, 29.5 µM. The TGI in the experiment on RXF 393 renal turned out to be 27 µM; in the experiment with HOP-92 NSCLC it was 29.6 µM.

For `CC12CCC(CC(=O)/C1=C(/Br)I)C2(C)C` (centres undefined), the TGI in the experiment with SF-268 CNS stood at 28.9 µM; in the experiment on RPMI-8226 leukemia, 26.4 µM; in the experiment on UACC-62 melanoma it was 30.4 µM; in the experiment on OVCAR-5 ovarian, 8.76 µM; with COLO 205 colon it was 31.9 µM; in the experiment on 786-0 renal, 30.2 µM. For the same compound, the TGI in the experiment with RXF 393 renal is 20.6 µM; in the experiment on HOP-92 NSCLC, 31.6 µM; with OVCAR-8 ovarian, 34.3 µM.

As for `O=C(Nc1ccccc1F)c1cc2ccc(O)cc2oc1=Nc1cccc(F)c1`, the TGI with SF-268 CNS was 79.1 µM; with RPMI-8226 leukemia, greater than 100 µM; in the experiment with UACC-62 melanoma, 29.6 µM; in the experiment on OVCAR-5 ovarian, 71 µM; in the experiment with BT-549 breast, 39.4 µM; with COLO 205 colon it was 77.3 µM. Also, the TGI turned out to be 30 µM with 786-0 renal and 23.8 µM with OVCAR-8 ovarian.

For the compound `O=C1C=CC(=O)c2c1ccc1c3ccccc3n(Cc3ccc([N+](=O)[O-])cc3)c21`, the TGI in the experiment with SF-268 CNS, in the experiment on UACC-62 melanoma, in the experiment on BT-549 breast, in the experiment with COLO 205 colon, with 786-0 renal and with RXF 393 renal was greater than 100 µM throughout. This compound also displayed a TGI in the experiment with OVCAR-8 ovarian greater than 100 µM.

As to `O=c1[nH]c(Nc2ccccc2)nc2c1ncn2CC(O)CSCCO` (centres undefined), the TGI in the experiment with SF-268 CNS, in the experiment on RPMI-8226 leukemia, in the experiment with UACC-62 melanoma, with OVCAR-5 ovarian, in the experiment on BT-549 breast and in the experiment on COLO 205 colon was greater than 100 µM throughout. Further, the TGI with 786-0 renal, in the experiment on HOP-92 NSCLC and with OVCAR-8 ovarian was greater than 100 µM throughout.

As for `CCN(CCCOc1ccccc1)CCN(CC)CCCOc1ccccc1`, the TGI in the experiment with SF-268 CNS turned out to be 28.4 µM; with RPMI-8226 leukemia, 10.4 µM; in the experiment on UACC-62 melanoma it was 36.7 µM; in the experiment on OVCAR-5 ovarian it was 38.9 µM; with BT-549 breast, 29.1 µM; with COLO 205 colon it was 24.5 µM. Besides, the TGI in the experiment with 786-0 renal was determined as 50.7 µM; with RXF 393 renal it was 38.5 µM; with OVCAR-8 ovarian, 38 µM.

Consider `Cc1ccc(C)c(NC(=O)C(=O)C(C(=O)c2ccc3ccccc3c2)C2OC(=O)c3ccccc32)c1` (centres undefined), for which the TGI in the experiment on SF-268 CNS was 23.2 µM; in the experiment with RPMI-8226 leukemia, greater than 100 µM; with UACC-62 melanoma, 27.8 µM; in the experiment on OVCAR-5 ovarian, 42.5 µM; in the experiment with COLO 205 colon, 32.1 µM; in the experiment with RXF 393 renal, 9.74 µM. Moreover, the TGI in the experiment with HOP-92 NSCLC was 78 µM; with OVCAR-8 ovarian it was 20.3 µM.

For the compound `O=C1[C@H](O)[C@@H]2C(O)O[C@H]3[C@@H]2N1C[C@H]3[Si](c1ccccc1)(c1ccccc1)c1ccccc1` (some centres undefined), the TGI in the experiment on SF-268 CNS, in the experiment with RPMI-8226 leukemia, in the experiment with UACC-62 melanoma, with OVCAR-5 ovarian, in the experiment with BT-549 breast and in the experiment on COLO 205 colon was greater than 100 µM each time. The TGI in the experiment on 786-0 renal, in the experiment with RXF 393 renal and in the experiment on OVCAR-8 ovarian was greater than 100 µM each time.

Consider `C[C@H](c1ccccc1)N1C(=O)[C@@H](O)[C@H]1[C@H](CO)OCc1ccccc1`, for which the TGI in the experiment with SF-268 CNS, in the experiment with RPMI-8226 leukemia, in the experiment on UACC-62 melanoma, in the experiment on OVCAR-5 ovarian, in the experiment with COLO 205 colon and in the experiment on 786-0 renal was greater than 100 µM in each case. Besides, the TGI with HOP-92 NSCLC and with OVCAR-8 ovarian was greater than 100 µM each time.

Turning to `COC1=NCc2ccccc2-c2ccccc21`, the TGI in the experiment with SF-268 CNS, with UACC-62 melanoma, with 786-0 renal, in the experiment with RXF 393 renal and in the experiment with OVCAR-8 ovarian was greater than 100 µM throughout.

With `O=S1(=O)c2ccccc2Oc2ccc(C(/C=N/O)=N/O)cc21`, the TGI in the experiment on SF-268 CNS is greater than 100 µM; with RPMI-8226 leukemia, 53.5 µM; in the experiment with UACC-62 melanoma, greater than 100 µM; in the experiment on OVCAR-5 ovarian it was greater than 100 µM; with COLO 205 colon, greater than 100 µM; in the experiment with 786-0 renal, greater than 100 µM. Moreover, the figures for the TGI in the experiment on RXF 393 renal, in the experiment on HOP-92 NSCLC and in the experiment with OVCAR-8 ovarian were 63.6 µM, greater than 100 µM and 47.7 µM, respectively.

In the case of `C#CCNC(CSSCC(N)C(=O)O)C(=O)O` (centres undefined), the TGI in the experiment on SF-268 CNS, in the experiment with RPMI-8226 leukemia, in the experiment with UACC-62 melanoma, with OVCAR-5 ovarian, in the experiment on COLO 205 colon and in the experiment on 786-0 renal was greater than 100 µM each time. For the same compound, the TGI with RXF 393 renal, in the experiment on HOP-92 NSCLC and in the experiment on OVCAR-8 ovarian was greater than 100 µM throughout.

On to `CCOC(=O)C(C#N)(Cc1c[nH]c2ccccc12)NC(C)=O` (centres undefined), for which the TGI in the experiment on SF-268 CNS, in the experiment with RPMI-8226 leukemia, with UACC-62 melanoma, in the experiment on OVCAR-5 ovarian, with COLO 205 colon and in the experiment on RXF 393 renal was greater than 100 µM in each case. The TGI with HOP-92 NSCLC and with OVCAR-8 ovarian was greater than 100 µM each time.
